From US10844077B2, “Thiazolyl-containing compounds for treating proliferative diseases” (Dana-Farber Cancer Institute, Inc., priority 2014, dated 2020)
Read-outs that look alike come from different tables or passages of the source.

Tests used:
Assay type in all cases: binding
broad panel of kinases [1] = molecular target: broad panel of kinases (Homo sapiens, UniProt Q8IWQ3); conditions: BRSK2; 1 μM
broad panel of kinases [2] = molecular target: broad panel of kinases (Homo sapiens, UniProt Q9BRS2); conditions: RIOK1; 1 μM
broad panel of kinases [3] = molecular target: broad panel of kinases (Homo sapiens, UniProt P28482); conditions: ERK2; 1 μM
broad panel of kinases [4] = molecular target: broad panel of kinases (Homo sapiens, UniProt P32298); conditions: GRK4; 1 μM
broad panel of kinases [5] = molecular target: broad panel of kinases (Homo sapiens, UniProt P21802); conditions: FGFR2; 1 μM
Sequence of broad panel of kinases (Homo sapiens, UniProt P21802) (P21802 22-821 limits assumed): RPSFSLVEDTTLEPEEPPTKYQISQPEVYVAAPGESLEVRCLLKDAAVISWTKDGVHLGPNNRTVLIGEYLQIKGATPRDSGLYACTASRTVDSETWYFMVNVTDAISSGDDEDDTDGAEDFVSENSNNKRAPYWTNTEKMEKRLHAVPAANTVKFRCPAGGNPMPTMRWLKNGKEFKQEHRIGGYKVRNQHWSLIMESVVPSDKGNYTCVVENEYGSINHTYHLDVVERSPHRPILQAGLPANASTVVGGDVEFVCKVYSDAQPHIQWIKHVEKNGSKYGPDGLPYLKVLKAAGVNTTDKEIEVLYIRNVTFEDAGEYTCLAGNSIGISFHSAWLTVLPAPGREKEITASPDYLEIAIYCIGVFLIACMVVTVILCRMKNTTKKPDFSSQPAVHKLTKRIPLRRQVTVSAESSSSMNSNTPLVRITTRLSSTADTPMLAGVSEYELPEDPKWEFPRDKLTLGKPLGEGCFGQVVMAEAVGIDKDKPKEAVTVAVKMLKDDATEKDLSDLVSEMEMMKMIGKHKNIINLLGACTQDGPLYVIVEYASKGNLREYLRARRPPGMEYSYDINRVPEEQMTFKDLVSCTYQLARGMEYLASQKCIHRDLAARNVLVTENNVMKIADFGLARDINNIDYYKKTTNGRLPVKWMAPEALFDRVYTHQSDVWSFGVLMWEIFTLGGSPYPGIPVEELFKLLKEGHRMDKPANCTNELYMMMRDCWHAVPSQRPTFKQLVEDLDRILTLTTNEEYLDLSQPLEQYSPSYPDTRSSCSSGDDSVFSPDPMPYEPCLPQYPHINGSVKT

broad panel of kinases [6] = molecular target: broad panel of kinases (Homo sapiens, UniProt Q8IVH8); conditions: MAP4K3; 1 μM
broad panel of kinases [7] = molecular target: broad panel of kinases (Homo sapiens, UniProt P31152); conditions: ERK4; 1 μM
broad panel of kinases [8] = molecular target: broad panel of kinases (Homo sapiens, UniProt P35590); conditions: TIE1; 1 μM
Sequence of broad panel of kinases (Homo sapiens, UniProt P35590) (P35590 22-1138 limits assumed): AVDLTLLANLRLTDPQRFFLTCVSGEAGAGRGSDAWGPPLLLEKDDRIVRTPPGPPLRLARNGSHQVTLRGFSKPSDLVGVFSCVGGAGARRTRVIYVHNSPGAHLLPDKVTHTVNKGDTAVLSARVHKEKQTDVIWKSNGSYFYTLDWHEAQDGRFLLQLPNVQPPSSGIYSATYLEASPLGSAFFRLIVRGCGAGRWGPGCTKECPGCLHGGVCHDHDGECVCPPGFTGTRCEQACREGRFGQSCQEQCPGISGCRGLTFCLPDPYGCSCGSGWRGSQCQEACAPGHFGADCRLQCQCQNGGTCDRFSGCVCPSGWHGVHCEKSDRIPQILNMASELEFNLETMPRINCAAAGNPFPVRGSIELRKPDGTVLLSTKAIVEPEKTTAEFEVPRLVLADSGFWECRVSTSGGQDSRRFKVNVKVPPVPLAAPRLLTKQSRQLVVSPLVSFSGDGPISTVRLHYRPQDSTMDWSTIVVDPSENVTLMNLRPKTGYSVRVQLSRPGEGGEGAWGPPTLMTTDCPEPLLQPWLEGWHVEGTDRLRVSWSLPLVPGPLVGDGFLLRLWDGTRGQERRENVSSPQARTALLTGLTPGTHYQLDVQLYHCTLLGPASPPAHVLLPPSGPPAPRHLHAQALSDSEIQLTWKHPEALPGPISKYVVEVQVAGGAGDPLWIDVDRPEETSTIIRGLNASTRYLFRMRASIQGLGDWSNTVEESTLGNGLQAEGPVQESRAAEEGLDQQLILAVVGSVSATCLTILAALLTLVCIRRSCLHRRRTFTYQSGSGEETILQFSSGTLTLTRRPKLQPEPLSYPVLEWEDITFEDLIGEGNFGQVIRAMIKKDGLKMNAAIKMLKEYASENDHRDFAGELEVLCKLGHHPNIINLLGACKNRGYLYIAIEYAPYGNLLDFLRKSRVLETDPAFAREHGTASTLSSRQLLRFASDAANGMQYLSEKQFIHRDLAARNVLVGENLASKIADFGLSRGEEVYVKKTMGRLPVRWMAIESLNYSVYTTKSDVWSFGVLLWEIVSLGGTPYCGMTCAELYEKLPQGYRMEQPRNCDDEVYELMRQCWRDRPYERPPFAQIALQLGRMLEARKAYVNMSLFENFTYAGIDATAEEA

broad panel of kinases [9] = molecular target: broad panel of kinases (Homo sapiens, UniProt P42336, C420R); conditions: PIK3CA(C420R); 1 μM
broad panel of kinases [10] = molecular target: broad panel of kinases (Homo sapiens, UniProt O75582); conditions: 1 μM
broad panel of kinases [11] = molecular target: broad panel of kinases (Homo sapiens, UniProt Q86YV6); conditions: MYLK4; 1 μM
broad panel of kinases [12] = molecular target: broad panel of kinases (Homo sapiens, UniProt Q9BYT3); conditions: STK33; 1 μM
broad panel of kinases [13] = molecular target: broad panel of kinases (Homo sapiens, UniProt Q13555); conditions: CAMK2G; 1 μM
broad panel of kinases [14] = molecular target: broad panel of kinases (Homo sapiens, UniProt Q99759); conditions: MAP3K3; 1 μM
broad panel of kinases [15] = molecular target: broad panel of kinases (Homo sapiens, UniProt P10721, D816H); conditions: KIT(D816H); 1 μM
broad panel of kinases [16] = molecular target: broad panel of kinases (Homo sapiens, UniProt Q92918); conditions: HPK1; 1 μM
broad panel of kinases [17] = molecular target: broad panel of kinases (Homo sapiens, UniProt P16591); conditions: FER; 1 μM
broad panel of kinases [18] = molecular target: broad panel of kinases (Homo sapiens, UniProt Q9P2K8, S808G); conditions: GCN2(Kin.Dom.2, S808G); 1 μM
broad panel of kinases [19] = molecular target: broad panel of kinases (Homo sapiens, UniProt P00519, Q252H); conditions: 1 μM
broad panel of kinases [20] = molecular target: broad panel of kinases (Homo sapiens, UniProt Q15835); conditions: GRK1; 1 μM
broad panel of kinases [21] = molecular target: broad panel of kinases (Homo sapiens, UniProt Q9NYY3); conditions: PLK2; 1 μM
broad panel of kinases [22] = molecular target: broad panel of kinases (Homo sapiens, UniProt P10721, L576P); conditions: KIT(L576P); 1 μM
broad panel of kinases [23] = molecular target: broad panel of kinases (Homo sapiens, UniProt P0C1S8); conditions: WEE2; 1 μM
broad panel of kinases [24] = molecular target: broad panel of kinases (Homo sapiens, UniProt P37023); conditions: ACVRL1; 1 μM
broad panel of kinases [25] = molecular target: broad panel of kinases (Homo sapiens, UniProt P15056); conditions: BRAF; 1 μM
broad panel of kinases [26] = molecular target: broad panel of kinases (Homo sapiens, UniProt P45984); conditions: JNK2; 1 μM
broad panel of kinases [27] = molecular target: broad panel of kinases (Homo sapiens, UniProt P09619); conditions: PDGFRB; 1 μM
Sequence of broad panel of kinases (Homo sapiens, UniProt P09619) (P09619 33-1106 limits assumed): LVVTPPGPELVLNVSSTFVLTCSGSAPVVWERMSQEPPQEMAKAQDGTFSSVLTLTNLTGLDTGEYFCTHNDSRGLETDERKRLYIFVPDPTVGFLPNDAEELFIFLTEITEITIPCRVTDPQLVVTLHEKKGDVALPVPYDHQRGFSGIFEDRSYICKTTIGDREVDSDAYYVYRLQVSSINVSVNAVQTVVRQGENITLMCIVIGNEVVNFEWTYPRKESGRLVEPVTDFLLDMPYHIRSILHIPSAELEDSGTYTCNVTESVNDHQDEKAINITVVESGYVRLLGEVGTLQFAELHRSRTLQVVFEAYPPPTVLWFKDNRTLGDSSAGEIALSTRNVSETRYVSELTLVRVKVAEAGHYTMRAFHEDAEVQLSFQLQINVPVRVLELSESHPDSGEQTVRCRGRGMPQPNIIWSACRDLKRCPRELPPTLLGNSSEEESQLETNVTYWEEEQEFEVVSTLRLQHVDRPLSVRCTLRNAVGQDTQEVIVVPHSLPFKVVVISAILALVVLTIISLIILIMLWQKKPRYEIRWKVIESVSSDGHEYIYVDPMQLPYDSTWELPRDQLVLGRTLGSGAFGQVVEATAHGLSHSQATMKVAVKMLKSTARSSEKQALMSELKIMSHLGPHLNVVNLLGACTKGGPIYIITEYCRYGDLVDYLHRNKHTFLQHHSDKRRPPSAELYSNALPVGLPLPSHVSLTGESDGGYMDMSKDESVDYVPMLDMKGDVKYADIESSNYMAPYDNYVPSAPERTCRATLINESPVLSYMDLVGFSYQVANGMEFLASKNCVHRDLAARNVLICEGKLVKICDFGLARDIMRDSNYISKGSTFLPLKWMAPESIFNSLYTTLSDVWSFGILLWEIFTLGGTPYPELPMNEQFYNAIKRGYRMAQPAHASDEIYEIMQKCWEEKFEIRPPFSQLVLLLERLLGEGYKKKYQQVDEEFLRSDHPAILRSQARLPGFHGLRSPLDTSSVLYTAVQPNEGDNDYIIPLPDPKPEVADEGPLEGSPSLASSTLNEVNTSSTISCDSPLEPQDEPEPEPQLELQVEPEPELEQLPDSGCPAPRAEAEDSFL

broad panel of kinases [28] = molecular target: broad panel of kinases (Homo sapiens, UniProt Q9UQM7); conditions: CAMK2A; 1 μM
broad panel of kinases [29] = molecular target: broad panel of kinases (Plasmodium falciparum, UniProt P61075)
broad panel of kinases [30] = molecular target: broad panel of kinases (Homo sapiens, UniProt P22607, G697C); conditions: FGFR3(G697C); 1 μM
broad panel of kinases [31] = molecular target: broad panel of kinases (Homo sapiens, UniProt P08581); conditions: MET; 1 μM
broad panel of kinases [32] = molecular target: broad panel of kinases (Homo sapiens, UniProt P42336); conditions: PIK3CA; 1 μM
broad panel of kinases [33] = molecular target: broad panel of kinases (Homo sapiens, UniProt Q9UM73); conditions: ALK; 1 μM
Sequence of broad panel of kinases (Homo sapiens, UniProt Q9UM73) (Q9UM73 19-1620 limits assumed): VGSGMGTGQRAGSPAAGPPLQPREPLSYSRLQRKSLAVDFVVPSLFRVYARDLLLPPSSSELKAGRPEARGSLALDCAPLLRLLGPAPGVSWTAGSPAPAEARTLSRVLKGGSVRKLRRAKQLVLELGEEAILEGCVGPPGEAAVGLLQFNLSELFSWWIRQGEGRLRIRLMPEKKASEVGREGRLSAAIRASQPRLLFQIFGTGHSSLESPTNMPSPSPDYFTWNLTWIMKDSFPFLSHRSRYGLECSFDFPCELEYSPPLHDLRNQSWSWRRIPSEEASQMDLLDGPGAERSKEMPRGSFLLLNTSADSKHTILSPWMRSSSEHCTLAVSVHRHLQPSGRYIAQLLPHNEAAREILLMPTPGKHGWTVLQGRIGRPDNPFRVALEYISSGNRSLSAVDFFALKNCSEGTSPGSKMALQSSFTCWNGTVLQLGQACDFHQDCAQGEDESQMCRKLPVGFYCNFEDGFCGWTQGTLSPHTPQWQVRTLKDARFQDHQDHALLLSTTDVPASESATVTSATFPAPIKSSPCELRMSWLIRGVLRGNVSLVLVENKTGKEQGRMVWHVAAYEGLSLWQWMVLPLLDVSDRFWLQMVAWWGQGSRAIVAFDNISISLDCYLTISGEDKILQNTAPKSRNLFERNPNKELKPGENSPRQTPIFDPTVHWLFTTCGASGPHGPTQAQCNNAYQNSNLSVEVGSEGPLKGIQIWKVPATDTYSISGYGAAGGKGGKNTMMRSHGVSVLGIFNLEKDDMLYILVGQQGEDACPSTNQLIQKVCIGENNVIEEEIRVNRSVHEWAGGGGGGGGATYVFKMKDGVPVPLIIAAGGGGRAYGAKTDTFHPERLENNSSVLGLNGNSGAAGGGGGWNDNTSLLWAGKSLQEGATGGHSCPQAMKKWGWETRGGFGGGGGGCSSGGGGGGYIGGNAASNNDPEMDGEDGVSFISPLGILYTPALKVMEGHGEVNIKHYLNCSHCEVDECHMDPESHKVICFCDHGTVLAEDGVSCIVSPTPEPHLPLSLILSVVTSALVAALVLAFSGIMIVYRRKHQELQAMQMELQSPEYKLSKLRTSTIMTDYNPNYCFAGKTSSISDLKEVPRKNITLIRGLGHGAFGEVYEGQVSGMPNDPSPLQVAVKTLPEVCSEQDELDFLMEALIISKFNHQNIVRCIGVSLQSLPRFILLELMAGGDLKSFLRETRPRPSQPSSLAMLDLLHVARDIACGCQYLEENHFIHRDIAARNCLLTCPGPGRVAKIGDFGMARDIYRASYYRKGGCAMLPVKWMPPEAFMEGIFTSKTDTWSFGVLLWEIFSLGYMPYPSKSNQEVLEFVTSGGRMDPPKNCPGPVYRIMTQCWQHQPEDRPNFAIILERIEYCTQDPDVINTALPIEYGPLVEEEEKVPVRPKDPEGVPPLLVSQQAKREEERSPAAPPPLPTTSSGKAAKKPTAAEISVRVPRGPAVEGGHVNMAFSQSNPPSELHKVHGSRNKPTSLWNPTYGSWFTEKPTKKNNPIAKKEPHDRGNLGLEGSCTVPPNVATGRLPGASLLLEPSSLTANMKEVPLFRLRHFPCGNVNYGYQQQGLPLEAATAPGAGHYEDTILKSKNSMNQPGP

broad panel of kinases [34] = molecular target: broad panel of kinases (Homo sapiens, UniProt P11802); conditions: 1 μM
Sequence of broad panel of kinases (Homo sapiens, UniProt P11802) (P11802 2-303 limits assumed): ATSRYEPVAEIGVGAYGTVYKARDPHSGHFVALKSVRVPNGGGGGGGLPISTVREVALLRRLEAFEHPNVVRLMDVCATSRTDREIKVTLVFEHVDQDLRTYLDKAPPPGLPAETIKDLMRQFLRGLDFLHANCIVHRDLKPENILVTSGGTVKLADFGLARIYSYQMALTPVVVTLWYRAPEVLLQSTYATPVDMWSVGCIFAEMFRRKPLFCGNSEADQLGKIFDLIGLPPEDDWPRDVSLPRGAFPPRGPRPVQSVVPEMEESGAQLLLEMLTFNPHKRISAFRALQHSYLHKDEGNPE

broad panel of kinases [35] = molecular target: broad panel of kinases (Homo sapiens, UniProt P16234); conditions: PDGFRA; 1 μM
broad panel of kinases [36] = molecular target: broad panel of kinases (Homo sapiens, UniProt Q15569); conditions: TESK1; 1 μM

Structure (SMILES) | percent of control binding remaining (lower = stronger binding) (broad panel of kinases [1]) | percent of control binding remaining (lower = stronger binding) (broad panel of kinases [2]) | percent of control binding remaining (lower = stronger binding) (broad panel of kinases [3]) | percent of control binding remaining (lower = stronger binding) (broad panel of kinases [4]) | percent of control binding remaining (lower = stronger binding) (broad panel of kinases [5]) | percent of control binding remaining (lower = stronger binding) (broad panel of kinases [6]) | percent of control binding remaining (lower = stronger binding) (broad panel of kinases [7]) | percent of control binding remaining (lower = stronger binding) (broad panel of kinases [8]) | percent of control binding remaining (lower = stronger binding) (broad panel of kinases [9]) | percent of control binding remaining (lower = stronger binding) (broad panel of kinases [10]; RPS6KA5(Kin.Dom.1-N-terminal)) | percent of control binding remaining (lower = stronger binding) (broad panel of kinases [10]; RPS6KA5(Kin.Dom.2-C-terminal)) | percent of control binding remaining (lower = stronger binding) (broad panel of kinases [11]) | percent of control binding remaining (lower = stronger binding) (broad panel of kinases [12]) | percent of control binding remaining (lower = stronger binding) (broad panel of kinases [13]) | percent of control binding remaining (lower = stronger binding) (broad panel of kinases [14]) | percent of control binding remaining (lower = stronger binding) (broad panel of kinases [15]) | percent of control binding remaining (lower = stronger binding) (broad panel of kinases [16]) | percent of control binding remaining (lower = stronger binding) (broad panel of kinases [17]) | percent of control binding remaining (lower = stronger binding) (broad panel of kinases [18]) | percent of control binding remaining (lower = stronger binding) (broad panel of kinases [20]) | also measured
C=CC(=O)N1CC[C@H](Nc2nc(CN3CCOCC3)cc(Nc3ncc(C(=O)Nc4c(C)cccc4C)s3)n2)C1 [Example I-2] | 100% | 90% | 100% | 100% | 73% | 100% | 90% | 100% | 100% | 98% | 94% | 98% | 86% | 91% | 79% | 14% | 51% | 100% | 85% | 94% | percent of control binding remaining (lower = stronger binding) (broad panel of kinases [19]; ABL1(Q252H)-nonphosphorylated): 0.3%; percent of control binding remaining (lower = stronger binding) (broad panel of kinases [19]; ABL1(Q252H)-phosphorylated): 0.25%; percent of control binding remaining (lower = stronger binding) (broad panel of kinases [21]): 92%; percent of control binding remaining (lower = stronger binding) (broad panel of kinases [22]): 0%; percent of control binding remaining (lower = stronger binding) (broad panel of kinases [23]): 100%; percent of control binding remaining (lower = stronger binding) (broad panel of kinases [24]): 54%; percent of control binding remaining (lower = stronger binding) (broad panel of kinases [25]): 4.4%; percent of control binding remaining (lower = stronger binding) (broad panel of kinases [26]): 100%; percent of control binding remaining (lower = stronger binding) (broad panel of kinases [27]): 0%; percent of control binding remaining (lower = stronger binding) (broad panel of kinases [28]): 86%; % change compared to control (broad panel of kinases [29]): 100%; percent of control binding remaining (lower = stronger binding) (broad panel of kinases [30]): 100%; percent of control binding remaining (lower = stronger binding) (broad panel of kinases [31]): 97%; percent of control binding remaining (lower = stronger binding) (broad panel of kinases [32]): 100%; percent of control binding remaining (lower = stronger binding) (broad panel of kinases [33]): 97%; percent of control binding remaining (lower = stronger binding) (broad panel of kinases [34]; CDK4-cyclinD1): 96%; percent of control binding remaining (lower = stronger binding) (broad panel of kinases [34]; CDK4-cyclinD3): 94%; percent of control binding remaining (lower = stronger binding) (broad panel of kinases [35]): 4.5%; percent of control binding remaining (lower = stronger binding) (broad panel of kinases [36]): 60%
C=CC(=O)N1CC[C@H](Nc2nccc(Nc3ncc(C(=O)Nc4c(C)cccc4C)s3)n2)C1 [Example I-3] | 95% | 82% | 100% | 100% | 88% | 100% | 62% | 100% | 99% | 88% | 52% | 100% | 96% | 97% | 94% | 23% | 61% | 99% | 100% | 97% | % change compared to control (broad panel of kinases [19]; ABL1(Q252H)-nonphosphorylated): 0.15%; % change compared to control (broad panel of kinases [19]; ABL1(Q252H)-phosphorylated): 0.3%; percent of control binding remaining (lower = stronger binding) (broad panel of kinases [21]): 76%; percent of control binding remaining (lower = stronger binding) (broad panel of kinases [22]): 0%; percent of control binding remaining (lower = stronger binding) (broad panel of kinases [23]): 97%; percent of control binding remaining (lower = stronger binding) (broad panel of kinases [24]): 76%; percent of control binding remaining (lower = stronger binding) (broad panel of kinases [25]): 6.8%; percent of control binding remaining (lower = stronger binding) (broad panel of kinases [26]): 90%; % change compared to control (broad panel of kinases [27]): 0%; percent of control binding remaining (lower = stronger binding) (broad panel of kinases [28]): 83%; % change compared to control (broad panel of kinases [29]): 100%; % change compared to control (broad panel of kinases [30]): 99%; percent of control binding remaining (lower = stronger binding) (broad panel of kinases [31]): 94%; percent of control binding remaining (lower = stronger binding) (broad panel of kinases [32]): 100%; percent of control binding remaining (lower = stronger binding) (broad panel of kinases [33]): 83%; percent of control binding remaining (lower = stronger binding) (broad panel of kinases [34]; CDK4-cyclinD1): 99%; percent of control binding remaining (lower = stronger binding) (broad panel of kinases [34]; CDK4-cyclinD3): 95%; percent of control binding remaining (lower = stronger binding) (broad panel of kinases [35]): 6.5%; percent of control binding remaining (lower = stronger binding) (broad panel of kinases [36]): 88%
